From patent publication US20120016009A1, “Optimized Methods For Delivery Of DSRNA Targeting The PCSK9 Gene” (priority 2008, published 2012) come the findings set out here.

pIC50: −log10 of the molar value. In the oligonucleotide strings, read from the 5' end, every base follows the letter of its sugar. An asterisk marks phosphorothioate; unmarked linkages are phosphodiester. Other units and linkages are bracketed, terminal groups are in braces. A string of capitals states the bases alone. d = 2'-deoxy (DNA); m = 2'-O-methyl; r = 2'-OH (RNA)

This data set relates to PCSK9 mRNA. Nature of the data set: PCSK9 siRNA screening in HepG2 cells (lipofectamine 2000 transfection, PCSK9 mRNA by Quantigene, normalized to GAP-DH). The data set is classed as cell-based, human. The settings on record: for Mean percent remaining mRNA transcript at siRNA concentration/in cell type 30 nM/HepG2: 30 nM siRNA; for Mean percent remaining mRNA transcript at siRNA concentration/in cell type 100 nM/HepG2: 100 nM siRNA; for Mean percent remaining mRNA transcript at siRNA concentration/in cell type 3 nM/HepG2: 3 nM siRNA. In a few lines:
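PCSK9 silencing was assessed in HepG2 cells by lipofectamine 2000 siRNA transfection in 96-well plates. Twenty-four hours later, lysates were analyzed with the Quantigene Explore Kit, with PCSK9 signal normalized to GAP-DH. Eight datapoints were collected per siRNA, and remaining transcript was expressed as a percentage of cells treated with an unrelated control siRNA duplex.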

For the substance “AD-9677: PCSK9 siRNA (sense UGGCGGGUGGGUACAGCCGTT; antisense CGGCUGUACCCACCCGCCATT; chemistry not given here)”, the “Mean percent remaining mRNA transcript at siRNA concentration/in cell type 30 nM/HepG2” value is 62%.
With “AD-9633: PCSK9 siRNA (sense rUrGrGrUrCrArCrCrGrCrUrGrCrCrGrGrCrArAdT*dT; antisense rUrUrGrCrCrGrGrCrArGrCrGrGrUrGrArCrCrAdT*dT)”, the “Mean percent remaining mRNA transcript at siRNA concentration/in cell type 30 nM/HepG2” value worked out at 75% and the “Mean percent remaining mRNA transcript at siRNA concentration/in cell type 100 nM/HepG2” value was determined as 56%.
On to “AD-9748: PCSK9 siRNA (sense mCmUrGmUmCmCmCmUmCmCmUmUrGrArGmCrAmCmCdT*dT; antisense rGrGrUrGrCrUmCrArArGrGrArGrGrGrAmCrArGdT*dT)”, for which the “Mean percent remaining mRNA transcript at siRNA concentration/in cell type 30 nM/HepG2” value amounted to 103%.
With “AD-9616: PCSK9 siRNA (sense rArGrCrArCrCrUrGrCrUrUrUrGrUrGrUrCrArCdT*dT; antisense rGrUrGrArCrArCrArArArGrCrArGrGrUrGrCrUdT*dT)”, the “Mean percent remaining mRNA transcript at siRNA concentration/in cell type 30 nM/HepG2” value stood at 84% and the “Mean percent remaining mRNA transcript at siRNA concentration/in cell type 100 nM/HepG2” value is on record as 74%.
As for “AD-9758: PCSK9 siRNA (sense mCrArAmCmUmUmUrGrGmCmCrGmCmUrGmUrGmUrGdT*dT; antisense mCrAmCrAmCrArGrCrGrGrCmCrArArArGrUrUrGdT*dT)”, the “Mean percent remaining mRNA transcript at siRNA concentration/in cell type 30 nM/HepG2” value is 96%.
By pIC50 is commonly meant the IC50 on a negative log10 scale, so that one unit is a factor of ten. A high value points to a low IC50. Turning to “AD-9605: PCSK9 siRNA (sense rUrGrGrUrGrArArGrArUrGrArGrUrGrGrCrGrAdT*dT; antisense rUrCrGrCrCrArCrUrCrArUrCrUrUrCrArCrCrAdT*dT)”, the pIC50 was 9.57, the “Mean percent remaining mRNA transcript at siRNA concentration/in cell type 3 nM/HepG2” value turned out to be 31% and the “Mean percent remaining mRNA transcript at siRNA concentration/in cell type 30 nM/HepG2” value was determined as 27%.
Take “AD-9526: PCSK9 siRNA (sense rUrCrCrCrArGrCrCrArGrGrArUrUrCrCrGrCrGdT*dT; antisense rCrGrCrGrGrArArUrCrCrUrGrGrCrUrGrGrGrAdT*dT)”: the “Mean percent remaining mRNA transcript at siRNA concentration/in cell type 30 nM/HepG2” value is on record as 89% and the “Mean percent remaining mRNA transcript at siRNA concentration/in cell type 100 nM/HepG2” value was 74%.
Turning to “AD-9706: PCSK9 siRNA (sense mCmCmUrGmCrGmCrGmUrGmCmUmCrArAmCmUrGmCdT*dT; antisense rGmCrArGrUrUrGrArGmCrArCrGrCrGmCrArGrGdT*dT)”, the “Mean percent remaining mRNA transcript at siRNA concentration/in cell type 30 nM/HepG2” value worked out at 86%.
The same measure, in the same setting: under “AD-9663: PCSK9 siRNA (sense rAmCrGrGmUrAmCmCrGrGrGmCrGrGrAmUrGrArAdT*dT; antisense rUrUmCrArUrCrCrGrCrCrCrGrGmUrArCrCrGrUdT*dT)” stands 102%.
Same read-out and setting: for “AD-9561: PCSK9 siRNA (sense rGrArCrArCrCrArGrCrArUrArCrArGrArGrUrGdT*dT; antisense rCrArCrUrCrUrGrUrArUrGrCrUrGrGrUrGrUrCdT*dT)” the value was 64%; for “AD-9628: PCSK9 siRNA (sense rUrUrCrUrCrUrGrCrCrArArArGrArUrGrUrCrAdT*dT; antisense rUrGrArCrArUrCrUrUrUrGrGrCrArGrArGrArAdT*dT)”, 141%; for “AD-9567: PCSK9 siRNA (sense rCrGrCrUrGrUrGrUrGrGrArCrCrUrCrUrUrUrGdT*dT; antisense rCrArArArGrArGrGrUrCrCrArCrArCrArGrCrGdT*dT)”, 41%.
For “AD-9598: PCSK9 siRNA (sense rCrCrUrGrGrUrGrGrArGrGrUrGrUrArUrCrUrCdT*dT; antisense rGrArGrArUrArCrArCrCrUrCrCrArCrCrArGrGdT*dT)”, the “Mean percent remaining mRNA transcript at siRNA concentration/in cell type 30 nM/HepG2” value stood at 83% and the “Mean percent remaining mRNA transcript at siRNA concentration/in cell type 100 nM/HepG2” value stood at 69%.
Consider “AD-9590: PCSK9 siRNA (sense rArCrCrArArCrUrUrUrGrGrCrCrGrCrUrGrUrGdT*dT; antisense rCrArCrArGrCrGrGrCrCrArArArGrUrUrGrGrUdT*dT)”, for which the “Mean percent remaining mRNA transcript at siRNA concentration/in cell type 30 nM/HepG2” value amounted to 122%.
On the same count and under the same terms, for “AD-9514: PCSK9 siRNA (sense rGrUrArCrCrGrGrGrCrGrGrArUrGrArArUrArCdT*dT; antisense rGrUrArUrUrCrArUrCrCrGrCrCrCrGrGrUrArCdT*dT)” the value was 57%; for “AD-9638: PCSK9 siRNA (sense rCrUrGrGrArGrUrUrUrArUrUrCrGrGrArArArAdT*dT; antisense rUrUrUrUrCrCrGrArArUrArArArCrUrCrCrArGdT*dT)”, 101%.
Same read-out and setting: for “AD-9622: PCSK9 siRNA (sense rCrUrGrUrCrCrCrUrCrCrUrUrGrArGrCrArCrCdT*dT; antisense rGrGrUrGrCrUrCrArArGrGrArGrGrGrArCrArGdT*dT)” the value was 94%; for “AD-9669: PCSK9 siRNA (sense mCrGmCrGmUrGmCmUmCrArAmCmUrGmCmCrArArGdT*dT; antisense rCrUrUrGrGmCrArGrUrUrGrArGmCrArCrGrCrGdT*dT)”, 97%.
On the same count and under the same terms, for “AD-9694: PCSK9 siRNA (sense rGmUmUrGrArGrGmCrArGrArGrAmCmUrGrAmUmCdT*dT; antisense rGrArUmCrArGrUrCrUrCrUrGrCrCrUmCrArArCdT*dT)” the value was 52%.
On to “AD-9519: PCSK9 siRNA (sense rCrCrCrArGrCrCrArGrGrArUrUrCrCrGrCrGrCdT*dT; antisense rGrCrGrCrGrGrArArUrCrCrUrGrGrCrUrGrGrGdT*dT)”, for which the “Mean percent remaining mRNA transcript at siRNA concentration/in cell type 30 nM/HepG2” value amounted to 78%.
As to “AD-9689: PCSK9 siRNA (sense mCrGmCmUrGmCmCrGrGmCrArAmCmUmUmCmCrGrGdT*dT; antisense rCrCrGrGrArArGrUrUrGrCrCrGrGmCrArGrCrGdT*dT)”, the “Mean percent remaining mRNA transcript at siRNA concentration/in cell type 30 nM/HepG2” value is recorded as 81%.
On the same count and under the same terms, for “AD-9735: PCSK9 siRNA (sense mCrAmCrGrGmUrAmCmCrGrGrGmCrGrGrAmUrGrAdT*dT; antisense rUmCrArUrCrCrGrCrCrCrGrGmUrArCrCrGrUrGdT*dT)” the value was 115%; for “AD-9681: PCSK9 siRNA (sense rGmUmCrArGrGrArGmCmCrGrGrGrAmCrGmUmCrAdT*dT; antisense rUrGrArCrGrUrCrCrCrGrGrCrUrCrCrUrGrArCdT*dT)”, 55%.
On the same count and under the same terms, under “AD-9710: PCSK9 siRNA (sense mCmCmCmUrGrGmCrGrGrGmUrGrGrGmUrAmCrArGdT*dT; antisense rCrUrGmUrArCrCmCrArCrCrCrGrCmCrArGrGrGdT*dT)” stands 111%; under “AD-9666: PCSK9 siRNA (sense rArGrArGmUrGrAmCmCrAmCmCrGrGrGrArArAmUdT*dT; antisense rArUrUrUrCrCrCrGrGrUrGrGrUmCrArCrUrCrUdT*dT)”, 81%.
Consider “AD-9573: PCSK9 siRNA (sense rArUrGrGrUrCrArCrCrGrArCrUrUrCrGrArGrAdT*dT; antisense rUrCrUrCrGrArArGrUrCrGrGrUrGrArCrCrArUdT*dT)”, for which the pIC50 is 8.80, the “Mean percent remaining mRNA transcript at siRNA concentration/in cell type 3 nM/HepG2” value was 42% and the “Mean percent remaining mRNA transcript at siRNA concentration/in cell type 30 nM/HepG2” value is on record as 36%.
“AD-9540: PCSK9 siRNA (sense rArGrArGrUrGrArCrCrArCrCrGrGrGrArArArUdT*dT; antisense rArUrUrUrCrCrCrGrGrUrGrGrUrCrArCrUrCrUdT*dT)”: the “Mean percent remaining mRNA transcript at siRNA concentration/in cell type 30 nM/HepG2” value was determined as 45%.
Still for that read-out and setting: under “AD-9602: PCSK9 siRNA (sense rCrArGrCrGrGrCrCrGrGrGrArUrGrCrCrGrGrCdT*dT; antisense rGrCrCrGrGrCrArUrCrCrCrGrGrCrCrGrCrUrGdT*dT)” stands 126%; under “AD-9687: PCSK9 siRNA (sense rGrAmCrAmCmCrArGmCrAmUrAmCrArGrArGmUrGdT*dT; antisense mCrArCrUrCrUrGmUrArUrGrCrUrGrGrUrGrUrCdT*dT)”, 84%.
“AD-9760: PCSK9 siRNA (sense mCmUmCmUrGmUmUrGmCmCmUmUmUmUmUrAmCrArGdT*dT; antisense rCrUrGmUrArArArArArGrGmCrArAmCrArGrArGdT*dT)”: the “Mean percent remaining mRNA transcript at siRNA concentration/in cell type 3 nM/HepG2” value was determined as 27% and the “Mean percent remaining mRNA transcript at siRNA concentration/in cell type 30 nM/HepG2” value is recorded as 14%.
Consider “AD-9698: PCSK9 siRNA (sense mCmCrArGrGmUrGmCmUrGmCmCmUrGmCmUrAmCmCdT*dT; antisense rGrGmUrArGmCrArGrGmCrArGmCrArCrCrUrGrGdT*dT)”, for which the “Mean percent remaining mRNA transcript at siRNA concentration/in cell type 30 nM/HepG2” value came to 73%.
With “AD-9326: PCSK9 siRNA (sense rGrCrArCrCrCrUrCrArUrArGrGrCrCrUrGrGrAdT*dT; antisense rUrCrCrArGrGrCrCrUrArUrGrArGrGrGrUrGrCdT*dT)”, the “Mean percent remaining mRNA transcript at siRNA concentration/in cell type 3 nM/HepG2” value was 51% and the “Mean percent remaining mRNA transcript at siRNA concentration/in cell type 30 nM/HepG2” value stood at 35%.
For the substance “AD-9716: PCSK9 siRNA (sense rAmCmCrArAmCmUmUmUrGrGmCmCrGmCmUrGmUrGdT*dT; antisense mCrAmCrArGrCrGrGrCmCrArArArGrUrUrGrGrUdT*dT)”, the “Mean percent remaining mRNA transcript at siRNA concentration/in cell type 30 nM/HepG2” value came out at 114%.
“AD-9574: PCSK9 siRNA (sense rCrUrGrCrCrArArGrGrGrArArGrGrGrCrArCrGdT*dT; antisense rCrGrUrGrCrCrCrUrUrCrCrCrUrUrGrGrCrArGdT*dT)”: the “Mean percent remaining mRNA transcript at siRNA concentration/in cell type 30 nM/HepG2” value was 74%.
Still for that read-out and setting: under “AD-9714: PCSK9 siRNA (sense rGrGmUmCrAmCmCrGmCmUrGmCmCrGrGmCrArAmCdT*dT; antisense rGrUrUrGrCrCrGrGmCrArGrCrGrGrUrGrArCrCdT*dT)” stands 106%.
